Measured values from publication PMC3435281 (PLoS ONE, 2012).
Entries after “also recorded” stand apart in the source; their conditions may differ.

Assays:
C57BL/6J splenocytes = assay: CYP1A1, CYP1B1 and IDO mRNA in C57BL/6J splenocytes; type: cell-based, mouse; conditions: 4 hours
From the text: (§1) An important role for the AHR in the immune system, and specifically T-cell differentiation, has been recognized and continues to be characterized in the literature, [7]. Some ligands of the AHR have the ability to enhance Treg differentiation from naïve T-cells (TCDD, kynurenine), while others direct differentiation towards Th17 effector cells (FICZ). […] IDO has long been known to play a role in Treg generation, and may be central to the mechanism of Dendritic Cell (DC)-directed Treg generation. […] As described in the Methods, naïve T-cells were sorted using magnetic bead separation, and placed in culture for 5 days with allogeneic pDCs separated from BALB/C mice. […] After 5 days, cells were collected and mRNA harvested for qPCR analysis of IDO and FoxP3. […] Naïve T cells were placed in culture with IL-6 and TGF-β, and harvested after 3 days of culture.
(§2) A. Spleens were harvested from mice and processed in the standard fashion. […] Same assay as A, but mRNA for CYP1B1 and IDO were measured. C.

[1] = test system: human 101L-hepatoma cells; assay: Duration of DRE-luciferase activation; type: cell-based; conditions: for luciferase activity: 100 nM
C57BL/6J mice (AHR^b) = assay: In vivo hepatic microsomal EROD activity, C57BL/6J; set-up: species or system mouse; conditions: oral 30, 80 or 120 mg/kg, 48 hours
Procedure: (§3) We utilized the wild type rat hepatoma cell line, 5L, which harbors the high affinity AHR isoform, and our newly created AHR^d-15 cell line. […] Groups of control mice were given corn oil alone or BNF at the concentration of 120 mg/kg.
(§4) Figure 3 In Vitro dose response curves. A. Rat hepatoma cell lines bearing the murine AHR^d (AHR^d-15) or the rat AHR^b (5L) were incubated with increasing doses of TCDD in 96-well plates. After 40 hours, EROD activity was performed from whole cell lysate. (n = 3). […] (n = 3). C. Same assay as in A, with increasing doses of BNF. (n = 2). […] Following 48 hours, hepatic microsomal proteins were isolated and used for the assessment of EROD activity. Animals were treated in groups of 4. Error bars: S.D.
(§5) Hepatic microsomes were prepared by homogenizing 0.5 g of liver tissue in 5 mL of MENG buffer (25 mM buffer sodium morpholinopropane sulfonate buffer (pH 7.5) containing 0.025% (w/v) NaN3, 1 mM EGTA and 10% (v/v) glycerol). The homogenate was subjected to centrifugation at 10,000×g for 20 minutes, followed by centrifugation of the supernatant for 1 hour at 100,000×g and 4°C. The pellet was dissolved in 15 mM Tris-HCl buffer containing 250 mM sucrose (pH 8.0) and aliquots were stored at −80°C. Protein concentration was determined using the Bicinchoninic Acid Protein Assay Reagent (Pierce Biotechnology, Rockford, IL). […]

DBA/2J mice (AHR^d) = assay: In vivo hepatic microsomal EROD activity, DBA/2J; set-up: species or system mouse; conditions: oral 30, 80 or 120 mg/kg, 48 hours
Procedure: as §3, §4, §5

[2] = test system: naïve T-cells with allogeneic BALB/C pDCs; assay: pDC/T cell coculture, qPCR of IDO and FoxP3; type: cell-based, mouse; conditions: 5 days, SU5416 500 nM, TCDD 10 nM
From the text: as §1, §2
Naive CD4^+CD25^− T cells were isolated from WT and AHR-null mice and cocultured with BALB/cJ pDCs isolated using the Miltenyi Mouse pDC Isolation Kit (Miltenyi Biotec) at a ratio of 20∶1 or 10∶1 as previously described (13). […] On day 5, cells were harvested and subjected to qPCR analysis.

[3] = molecular target: wild-type AHR (pTarget-mAHR) (Mus musculus, UniProt P30561); assay: DRE-luciferase in COS-1 cells transfected with wild-type mAHR
Procedure: Figure 4 Splenocytes from wild-type and AHR^d mice analyzed by qPCR for CYP1A1. […] After 4 hours they were analyzed by qPCR for CYP1A1 analysis. The curves are normalized from 0 to 100% response. […] Cos-1 cells were transfected with an AHR containing the same point mutation (valine for alanine) thought to be responsible for the low affinity of the AHR^d isoform compared to AHR^b, and compared to the wild-type AHR response. These cells also harbor a luciferase gene next to the DRE. C. Cos-1 cells were exposed to TCDD. […] The graphs represent normalized data from 0 response to 100% response. They are representative of 2 independent experiments.
These cells also harbor a luciferase gene next to the DRE. […] The data in this figure is normalized from 0 to 100% response.
After 4 hours of treatment, cells were assayed with dual luciferase® reporter assay system (Promega, Madison, WI). The expressed luciferase activity was measured by MicroLumat Plus luminometer (Berthold Technologies, Hartfordshire, UK).

[4] = test system: CYP1A1 (induction through AHR^b); assay: CYP1A1 qPCR in wild-type splenocytes; conditions: C57BL/6J, mouse
Procedure: As the above in vitro experiments were performed in cell lines, we next utilized AHR^b (C57BL/6J) and AHR^d congenic mice (on a C57BL/6J background). […] Normalized data was chosen to allow comparison of CYP1A1 upregulation to its maximum in AHR^b versus AHR^d mice.
Figure 4 Splenocytes from wild-type and AHR^d mice analyzed by qPCR for CYP1A1. […] After 4 hours they were analyzed by qPCR for CYP1A1 analysis. The curves are normalized from 0 to 100% response. […] Cos-1 cells were transfected with an AHR containing the same point mutation (valine for alanine) thought to be responsible for the low affinity of the AHR^d isoform compared to AHR^b, and compared to the wild-type AHR response. These cells also harbor a luciferase gene next to the DRE. C. Cos-1 cells were exposed to TCDD. […]
Spleen was harvested from mice at the time of euthanasia and single cell suspensions were made. […] The relative quantitation PCR for IDO1 (Mm00492586-m1) and GAPDH (4352339-E0806018) were performed in the Applied Biosystems 7900HT Fast Real-Time PCR System (Applied Biosystems), and TaqMan Universal PCR Master Mix (Applied Biosystems) was used as a reaction reagent. The relative quantitation PCR for Foxp3, CYP1A1, CYP1B1, and GAPDH were processed by the Bio-Rad iCycler (Bio-Rad) and iQ SYBR Green Supermix ([…]) was used as the reaction reagent.

Sequence of wild-type AHR (pTarget-mAHR) (P30561 10-848): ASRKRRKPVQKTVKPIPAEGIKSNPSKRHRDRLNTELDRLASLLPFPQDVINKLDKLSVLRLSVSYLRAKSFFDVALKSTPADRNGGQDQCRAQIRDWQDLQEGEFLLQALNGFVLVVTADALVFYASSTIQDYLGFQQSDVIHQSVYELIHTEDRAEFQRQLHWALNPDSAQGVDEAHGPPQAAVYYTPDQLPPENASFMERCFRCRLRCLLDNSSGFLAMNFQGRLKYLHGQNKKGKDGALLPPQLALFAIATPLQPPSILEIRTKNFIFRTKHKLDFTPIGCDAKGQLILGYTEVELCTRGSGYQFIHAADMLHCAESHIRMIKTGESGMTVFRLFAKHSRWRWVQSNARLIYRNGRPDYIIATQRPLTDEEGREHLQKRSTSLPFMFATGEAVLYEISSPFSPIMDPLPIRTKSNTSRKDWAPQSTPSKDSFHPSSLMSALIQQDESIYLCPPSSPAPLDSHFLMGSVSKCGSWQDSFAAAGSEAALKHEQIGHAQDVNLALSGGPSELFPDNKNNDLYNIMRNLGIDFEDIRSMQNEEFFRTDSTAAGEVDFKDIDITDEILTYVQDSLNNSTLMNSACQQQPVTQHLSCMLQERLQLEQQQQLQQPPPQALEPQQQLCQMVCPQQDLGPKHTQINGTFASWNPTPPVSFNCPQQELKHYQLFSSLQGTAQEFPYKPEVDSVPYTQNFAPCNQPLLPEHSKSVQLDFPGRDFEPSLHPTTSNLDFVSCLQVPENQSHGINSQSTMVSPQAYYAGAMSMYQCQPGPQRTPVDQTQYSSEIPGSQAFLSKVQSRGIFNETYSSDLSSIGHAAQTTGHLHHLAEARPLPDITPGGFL

Row | Compound | induction of CYP1A1 and CYP1B1 mRNA (C57BL/6J splenocytes; titrating doses) | induction of IDO mRNA (C57BL/6J splenocytes; titrating doses) | CYP1A1 mRNA induction (C57BL/6J splenocytes; wild-type cells, SU5416 500 nM) | luciferase activity as percent of TCDD response (1 nM) [1] [%] | luciferase activity ([1]; 4 hours) | luciferase activity ([1]; 24 hours) | hepatic EROD activity (C57BL/6J mice (AHR^b)) | hepatic EROD activity (DBA/2J mice (AHR^d)) | FoxP3 mRNA [2] | IDO mRNA [2] | duration of DRE-binding ([1]; 1 nM, 4 to 96 hours) | EC50 [3] [nM] | EC50 at 4 h [4] [nM]
1 | Cc1cc(C)c(C=C2C(=O)Nc3ccccc32)[nH]1 [SU5416, 3-(3,5-dimethyl-1H-pyrrol-2-ylmethylene)-1,3-dihydro-indole-2-one] | dramatically induced | induced significant amounts of IDO mRNA | induced CYP1A1 in wild-type | ≤ 20 | has activity | no longer causes luciferase activity | dose-dependent increase | dose-dependent increase | generated; also recorded: to a greater extent than TCDD | generated; also recorded: to a greater extent than TCDD | – | – | –
2 | Clc1cc2c(cc1Cl)Oc1cc(Cl)c(Cl)cc1O2 [TCDD, 2,3,7,8-tetrachlorodibenzo-p-dioxin] | – | – | – | – | – | – | – | – | upregulation was also seen | upregulation was also seen | long duration DRE-binding | 0.73 | 0.461
